Test results as given in patent US20150045410A1, “METHOD OF REGULATING CFTR EXPRESSION AND PROCESSING” (University of Iowa Research Foundation, priority 2012, published 2015).

Target: T1, CFTR-ΔF508 (Homo sapiens, UniProt P13569, DEL508-508)
T1 construct: expressed in transfected cells
Assay: Cell surface ELISA (anti-HA) in HeLa cells stably expressing HA-tagged CFTR-ΔF508
Format: cell-based
Details: HeLa-ΔF508-CFTR-HA cells treated daily with drugs, 72 hr post-treatment, vs DMSO (FIG. 28, 29)

T1 sequence (P13569 with tags, fused parts or gaps DEL508-508): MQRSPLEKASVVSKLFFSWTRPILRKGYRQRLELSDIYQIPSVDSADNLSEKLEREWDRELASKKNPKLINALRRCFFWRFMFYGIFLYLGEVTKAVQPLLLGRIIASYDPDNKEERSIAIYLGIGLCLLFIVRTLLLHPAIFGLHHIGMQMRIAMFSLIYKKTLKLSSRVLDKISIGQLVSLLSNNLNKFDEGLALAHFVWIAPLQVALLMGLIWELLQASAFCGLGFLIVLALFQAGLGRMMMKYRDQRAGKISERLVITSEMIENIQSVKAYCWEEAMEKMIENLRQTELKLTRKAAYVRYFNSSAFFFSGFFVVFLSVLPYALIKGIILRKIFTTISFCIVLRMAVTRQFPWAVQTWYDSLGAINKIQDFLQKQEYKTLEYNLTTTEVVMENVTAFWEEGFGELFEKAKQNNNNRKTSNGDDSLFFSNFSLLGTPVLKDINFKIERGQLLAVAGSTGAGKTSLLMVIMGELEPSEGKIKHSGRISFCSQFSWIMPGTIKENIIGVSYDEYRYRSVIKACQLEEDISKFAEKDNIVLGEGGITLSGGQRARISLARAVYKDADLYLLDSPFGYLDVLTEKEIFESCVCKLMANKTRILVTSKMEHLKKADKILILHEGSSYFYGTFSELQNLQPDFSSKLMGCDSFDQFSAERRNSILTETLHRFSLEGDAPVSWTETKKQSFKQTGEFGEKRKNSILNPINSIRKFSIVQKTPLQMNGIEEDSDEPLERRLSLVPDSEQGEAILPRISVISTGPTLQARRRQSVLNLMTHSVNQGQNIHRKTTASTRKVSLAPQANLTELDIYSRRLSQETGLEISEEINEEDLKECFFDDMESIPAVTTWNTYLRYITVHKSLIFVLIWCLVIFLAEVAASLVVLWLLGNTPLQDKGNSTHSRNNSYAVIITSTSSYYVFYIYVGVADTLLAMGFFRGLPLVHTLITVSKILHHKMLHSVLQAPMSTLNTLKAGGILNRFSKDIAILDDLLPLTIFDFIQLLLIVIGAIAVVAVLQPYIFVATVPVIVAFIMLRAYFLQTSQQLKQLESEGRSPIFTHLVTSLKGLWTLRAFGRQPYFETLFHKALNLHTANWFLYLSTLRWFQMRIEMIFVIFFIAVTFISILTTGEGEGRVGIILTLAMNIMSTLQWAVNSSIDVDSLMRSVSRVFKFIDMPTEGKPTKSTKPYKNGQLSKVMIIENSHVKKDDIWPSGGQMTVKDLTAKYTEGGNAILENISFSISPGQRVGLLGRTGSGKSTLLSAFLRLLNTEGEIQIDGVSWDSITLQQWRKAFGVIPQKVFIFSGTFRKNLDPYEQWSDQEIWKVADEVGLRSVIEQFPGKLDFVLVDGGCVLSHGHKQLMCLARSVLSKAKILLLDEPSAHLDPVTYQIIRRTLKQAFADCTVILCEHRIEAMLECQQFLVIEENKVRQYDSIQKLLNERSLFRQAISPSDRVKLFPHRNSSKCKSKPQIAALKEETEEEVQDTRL

SMILES	surface display of ΔF508-CFTR (live cell-surface ELISA)	surface display of ΔF508-CFTR (live cell-surface ELISA) (listed as pyridostigmine)
CN(C)C(=O)Oc1cccc([N+](C)(C)C)c1 [Neostigmine, 3-{[(dimethylamino)carbonyl]oxy}-N,N,N-trimethylbenzenaminium]	increased	–
CN(C)C(=O)Oc1ccc[n+](C)c1 [Pyridostigmine]	rescues ΔF508-CFTR trafficking	increased
